Values quoted from earlier work in patent US10632083B2, “Ophthalmic compositions” (SaCSh Corp., priority 2016, dated 2020).

SMILES: [H]/N=C(\N/C(=N/[H])NCCCCCCNC(=N)NC(=N)Nc1ccc(Cl)cc1)Nc1ccc(Cl)cc1 [chlorhexidine, N,N″″1,6-Hexanediylbis[N′-(4-chlorophenyl)(imidodicarbonimidic diamide)]]
- eye damage after topical chlorhexidine accidentally got into the eyes (Tabor et al. 1989, four cases): irreversible corneal damage
- eye damage after accidental application to patients undergoing eye surgery (van Rij et al. 1995, led to bullous keratopathy, all affected patients required corneal transplant): immediate corneal edema
